Measurements: patent publication US20200384135A1, “CANCER IMAGING WITH THERAPY: THERANOSTICS” (Virginia Commonwealth University, priority 2010, published 2020)

What was measured:
Format in all cases: in vivo, mice
[1] = system: breast cancer metastasis model, BCa-1; assay: Cross-comparison of PEG-Prom-mediated SPECT imaging and FDG-PET; conditions: BCa-1, PET acquired same day as SPECT
Protocol: FIGS. 7A-7D. Detection and localization of metastatic masses of melanoma after the systemic administration of pPEG-HSV1 tk by SPECT-CT imaging. Transverse, coronal and sagittal views of co-registered SPECT-CT images of Mel-2 (7A) and Mel-3 (7B, 7C and 7D) from FIG. 6C. All images were obtained at 24 h after [^125I]FIAU injection, which was 70 h after the IV administration of pPEG-HSV1 tk/PEI polyplex. Gross anatomical details of the metastatic masses that were located based on the SPECT-CT images in 7A, 7B, 7C and 7D. Multiple metastatic sites were detected by SPECT-CT imaging in Mel-2 (7A, dotted circle). […] (7B) Accumulated radioactivity was detected adjacent to the thoracic mid-spine toward the left side (white arrow), which corresponded to a tumor mass at this location. […] Melanoma was uncovered immediately above the diaphragm (f, white dotted circle) and in the left inguinal lymph node, correlating with 7C and 7D. Cross-comparison of the PEG-Prom-mediated imaging and FDG-PET in abreast cancer metastasis model, BCa-1. Two nodules (Tu-1 and -2) were detected by [^125I]FIAU-SPECT near the heart and were confirmed by necropsy. […] SPECT images were acquired 48 h post-injection of [^125I]FIAU, which was 94 h after the pPEG-HSV1 tk/PEI delivery. The PET images were acquired on the same day as the SPECT data. […]

PC3-ML-Luc metastases [2] = assay: FDG-PET/CT, intra-cardiac PC3-ML-Luc metastasis model; conditions: PCa-3, same mouse
Protocol: (§1) FIGS. 17A-E. AEG-Prom-based SPECT/CT imaging detects distant metastasis not identified by NaF- or FDG-PET/CT. The experimental metastases model, PCa-3 (n=5), was developed by intra-cardiac injection of 5×10^4 PC3-ML-Luc cells, SPECT/CT images for PCa-3 and a representative healthy control Ctrl-1 were obtained at 18-20 h after [^125I]FIAU injection, which was 66-68 h after IV administration of pAEG-HSV1tk-PEI polyplex. (17A, 17B) NaF-PET/CT, AEG-Prom SPECT/CT and FDG-PET imaging in Ctrl-1 (17A) and the PC3-ML-Luc model. PCa-3 (17B). (17D, 17E) Gross pathology of the metastatic nodules that were located on the basis of the SPECT/CT images. ([…]) Ex vivo BLI of the dissected organs, imaged within 20 min of euthanasia. […] A possible L1 lesion was detected by FDG/PET (17B). […]
(§2) Cloning of plasmid constructs. pPEG-Luc and pAEG-Luc were generated as described previously (3, 28). […] Luminescence was normalized for transfection efficiency by co-transfection with a vector expressing renilla luciferase, pGL4.74[hRluc/TK] […] After 48 h of transfection, the expression level of the Luc reporter was measured by the Dual Luciferase Reporter Assay kit (Promega). Luminescence was normalized for cell number (by μg total protein) using the BCA Protein Assay Kit (Pierce Biotechnology, Rockford, Ill.). […]

PC3-ML-Luc metastases [3] = assay: NaF-PET/CT, intra-cardiac PC3-ML-Luc metastasis model; conditions: PCa-3
Protocol: as §1, §2

Structure (SMILES)	Detection of nodule Tu-2 (smaller nodule attached to the heart) [1]	Detection of metastatic lesions by FDG-PET/CT (PC3-ML-Luc metastases [2])	Detection of metastatic lesions by NaF-PET/CT (PC3-ML-Luc metastases [3])
OC[C@H]1OC(O)[C@H]([18F])[C@@H](O)[C@@H]1O (stereo partly drawn) [FDG, [^18F]fluorodeoxyglucose]	not obvious in the PET image	only able to identify a lesion in the left shoulder	
[18F-].[Na+] [NaF, [^18F]NaF]			failed to identify the metastases within tibia and axial skeleton
